# What was measured:
# [1] = system: methicillin resistant Staphylococcus aureus (MRSA) Mu50; assay: MIC of antibiotics against MRSA Mu50 with or without spermine; format: cell-based; details: for MIC: Staphylococcus aureus, MRSA, read-out: MICs in the presence or absence of spermine (1 mM): No add; for MICs in the presence or absence of spermine (1 mM): Spermine: with 1 mM spermine
# [2] = system: MRSA Staphylococcus aureus 700699; assay: MIC of antibiotics against MRSA Staphylococcus aureus 700699 with or without spermine; format: cell-based; details: for MIC: Staphylococcus aureus, MRSA, read-out: MICs in the absence or presence of spermine: No add; for MICs in the absence or presence of spermine: Spermine (1 mM): with 1 mM spermine
# [3] = system: E. coli (K10, K12, C921-61); assay: MIC of antibiotics against E. coli strains with or without polyamines (FIG. 3); format: cell-based; details: E. coli K10, K12, C921-61 and S. typhimurium LT2
# [4] = system: Salmonella typhimurium LT2; details: for MICs in the indicated concentrations (mM) of polyamines: Spermine (1 mM): with 1 mM spermine; for MICs in the indicated concentrations (mM) of polyamines: Spermidine (20 mM): with 20 mM spermidine;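 for all read-outs here: Two-fold agar or broth dilution in Mueller-Hinton broth, MIC taken as lowest drug concentration without visible turbidity, tested alone or combined with polyamines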
# [5] = system: Salmonella typhimurium LT2; assay: microbe, parasite or virus in culture; details: Salmonella enterica, read-out: MICs in the indicated concentrations (mM) of polyamines: No add;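 note: Two-fold agar or broth dilution in Mueller-Hinton broth, MIC taken as lowest drug concentration without visible turbidity, tested alone or combined with polyamines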
# [6] = system: outer membrane permeability; assay: Outer membrane permeabilization assay (β-lactamase activity in whole cells or released into suspension); format: cell-based
# Description: The β-lactamase activity was determined by a spectrophotometric method using nitrocefin as a substrate. After the β-lactamase was extracted from the cells, the β-lactamase activity was monitored by absorbance changes in wavelength at 486 nm with a molar extinction coefficient of 20500. The extent of hydrolysis was a reflection of the amount of enzyme remaining uninhibited.
# An outer membrane permeabilization assay was performed by examining the release of the chromosomally encoded β-lactamase. Briefly, stationary phase cells were diluted 1:59 into 20 mL pre-warmed MMP broth and cultured in an incubator at 350 rpm and at 37 C for 5 hours. After carbenicillin (200 μg/mL) was added to induce β-lactamase activity, the culture was incubated for additional 5 hours. The cells were harvested by centrifugation at 5,000×g for 10 minutes and washed once with 0.05M sodium phosphate buffer at pH 7.2. The cell pellet was resuspended in 5 mL of the same buffer and divided into 1 mL aliquots. […] […] The reaction mixtures were incubated at room temperature for 5 minutes and immediately centrifuged at full speed (15000×g) for 20 minutes and the supernatant was used for β-lactamase sources. β-lactamase activity was determined as described above using 300 μL of the supernatant.
# P. aeruginosa PAO1 = assay: MIC of antibiotics against P. aeruginosa PAO1 with or without polyamines; format: cell-based; details: for MIC values in the presence versus the absence of polyamines: hydrophobic antibiotics (FIG. 1)
Compound,MIC ([1]; no spermine),MICs in the presence or absence of spermine (1 mM): Spermine [1],MIC ([2]; no spermine),MICs in the absence or presence of spermine: Spermine (1 mM) [2],susceptibility with the combination of polyamines and antibiotics [3],MICs in the indicated concentrations (mM) of polyamines: Spermine (1 mM) [4],MICs in the indicated concentrations (mM) of polyamines: Spermidine (20 mM) [4],MIC [5],further results
CCN1CCN(C(=O)N[C@@H](C(=O)N[C@@H]2C(=O)N3[C@@H]2SC(C)(C)[C@@H]3C(=O)O)c2ccccc2)C(=O)C1=O [Piperacillin],32 µg/mL,2 µg/mL,32 µg/mL,2 µg/mL,improved susceptibility,0.5 µg/mL,0.25 µg/mL,4 µg/mL,–
Polymyxin B,–,64 µg/mL,–,–,–,–,–,–,β-lactamase activities detected in the whole cells ([6]; 100 μg/mL applied to the cell suspension (FIG. 5)): significant activities
CC(=O)O[C@H]1C[C@@]2(C)[C@@H](C[C@@H](O)[C@H]3[C@@]4(C)CC[C@@H](O)[C@@H](C)[C@@H]4CC[C@@]32C)/C1=C(\CCC=C(C)C)C(=O)O [Fusidic acid],–,–,–,–,improved susceptibility,1024 µg/mL,1024 µg/mL,> 1020 µg/mL,MIC values in the presence versus the absence of polyamines (P. aeruginosa PAO1): identical
O=C(O)CN(CCN(CC(=O)O)CC(=O)O)CC(=O)O [EDTA],–,–,–,–,–,–,–,–,release of periplasmic β-lactamase into the suspension solution ([6]; 0.5 mM (FIG. 6)): can be detected; release of periplasmic β-lactamase into the suspension solution ([6]; 1 mM (FIG. 6)): increased
O=C(N[C@H](CO)[C@H](O)c1ccc([N+](=O)[O-])cc1)C(Cl)Cl [Chloramphenicol],8 µg/mL,2 µg/mL,8 µg/mL,2 µg/mL,improved susceptibility,1 µg/mL,1 µg/mL,2 µg/mL,–
NCCCCN [Putrescine],–,–,–,–,–,–,–,–,MICs to carbenicillin in the indicated concentration of polyamines (P. aeruginosa PAO1; 0 mM polyamine): 64 µg/mL; MICs to carbenicillin in the indicated concentration of polyamines (P. aeruginosa PAO1; 0.5 mM polyamine): 64 µg/mL; MICs to carbenicillin in the indicated concentration of polyamines (P. aeruginosa PAO1; 1 mM polyamine): 32 µg/mL; MICs to carbenicillin in the indicated concentration of polyamines (P. aeruginosa PAO1; 5 mM polyamine): 32 µg/mL; MICs to carbenicillin in the indicated concentration of polyamines (P. aeruginosa PAO1; 10 mM polyamine): 32 µg/mL; MICs to carbenicillin in the indicated concentration of polyamines (P. aeruginosa PAO1; 20 mM polyamine): 16 µg/mL
CC1(C)S[C@@H]2[C@H](NC(=O)Cc3ccccc3)C(=O)N2[C@H]1C(=O)O [Penicillin G],–,0.25 µg/mL,–,0.25 µg/mL,improved susceptibility,2 µg/mL,2 µg/mL,–,MICs in the presence or absence of spermine (1 mM): No add ([1]; no spermine): 16 µg/mL; MICs in the absence or presence of spermine: No add ([2]; no spermine): 16 µg/mL; MICs in the indicated concentrations (mM) of polyamines: No add ([4]; no polyamine): 16 µg/mL
CC1(C)S[C@@H]2[C@H](NC(=O)[C@H](C(=O)O)c3ccsc3)C(=O)N2[C@H]1C(=O)O [Ticarcillin],256 µg/mL,4 µg/mL,256 µg/mL,4 µg/mL,improved susceptibility,0.5 µg/mL,1 µg/mL,4 µg/mL,–
Cc1onc(-c2ccccc2)c1C(=O)N[C@@H]1C(=O)N2[C@@H]1SC(C)(C)[C@@H]2C(=O)O [Oxacillin],≥ 256 µg/mL,1 µg/mL,≥ 256 µg/mL,2 µg/mL,improved susceptibility,–,64 µg/mL,256 µg/mL,decrease of MIC with exogenous spermine ([1]; spermine 1 mM and less): over 100 fold
CN(C)[C@@H]1C(O)=C(C(N)=O)C(=O)[C@@]2(O)C(O)=C3C(=O)c4c(O)cccc4[C@@](C)(O)[C@H]3C[C@@H]12 [Tetracycline],32 µg/mL,8 µg/mL,32 µg/mL,4 µg/mL,–,2 µg/mL,2 µg/mL,2 µg/mL,–
CO[C@@H]1[C@@H](OC(N)=O)[C@@H](O)[C@H](Oc2ccc3c(O)c(NC(=O)c4ccc(O)c(CC=C(C)C)c4)c(=O)oc3c2C)OC1(C)C [Novobiocin],–,–,–,–,improved susceptibility,1024 µg/mL,256 µg/mL,> 1020 µg/mL,MIC values in the presence versus the absence of polyamines (P. aeruginosa PAO1): identical
CC1(C)S[C@@H]2[C@H](NC(=O)[C@H](NC(=O)N3CCNC3=O)c3ccccc3)C(=O)N2[C@H]1C(=O)O [Azlocillin],16 µg/mL,0.5 µg/mL,16 µg/mL,0.5 µg/mL,improved susceptibility,4 µg/mL,1 µg/mL,16 µg/mL,–
NCCCCNCCCN [Spermidine],–,–,–,–,–,–,–,–,MICs to carbenicillin in the indicated concentration of polyamines (P. aeruginosa PAO1; 0 mM polyamine): 64 µg/mL; MICs to carbenicillin in the indicated concentration of polyamines (P. aeruginosa PAO1; 0.5 mM polyamine): 32 µg/mL; MICs to carbenicillin in the indicated concentration of polyamines (P. aeruginosa PAO1; 1 mM polyamine): 16 µg/mL; MICs to carbenicillin in the indicated concentration of polyamines (P. aeruginosa PAO1; 5 mM polyamine): 16 µg/mL; MICs to carbenicillin in the indicated concentration of polyamines (P. aeruginosa PAO1; 10 mM polyamine): 8 µg/mL; MICs to carbenicillin in the indicated concentration of polyamines (P. aeruginosa PAO1; 20 mM polyamine): 4 µg/mL; β-lactamase activity detected ([6]; 20 mM (FIG. 7)): only a very low level
CC[C@H]1OC(=O)[C@H](C)[C@@H](O[C@H]2C[C@@](C)(OC)[C@@H](O)[C@H](C)O2)[C@H](C)[C@@H](O[C@@H]2O[C@H](C)C[C@H](N(C)C)[C@H]2O)[C@](C)(O)C[C@@H](C)C(=O)[C@H](C)[C@@H](O)[C@]1(C)O [Erythromycin],–,–,–,–,improved susceptibility,32 µg/mL,64 µg/mL,64 µg/mL,MIC values in the presence versus the absence of polyamines (P. aeruginosa PAO1): identical
CN[C@@H]1[C@H](O)[C@H](NC)[C@H]2O[C@@]3(O)C(=O)C[C@@H](C)O[C@H]3O[C@@H]2[C@H]1O [Spectinomycin],–,–,–,–,improved susceptibility,32 µg/mL,32 µg/mL,32 µg/mL,–
CC1(C)S[C@@H]2[C@H](NC(=O)[C@H](N)c3ccccc3)C(=O)N2[C@H]1C(=O)O [Ampicillin],≥ 32 µg/mL,2 µg/mL,≥ 32 µg/mL,2 µg/mL,improved susceptibility,–,–,16 µg/mL,–
NCCCCCN [Cadaverine],–,–,–,–,–,–,–,–,MICs to carbenicillin in the indicated concentration of polyamines (P. aeruginosa PAO1; 0 mM polyamine): 64 µg/mL; MICs to carbenicillin in the indicated concentration of polyamines (P. aeruginosa PAO1; 0.5 mM polyamine): 64 µg/mL; MICs to carbenicillin in the indicated concentration of polyamines (P. aeruginosa PAO1; 1 mM polyamine): 32 µg/mL; MICs to carbenicillin in the indicated concentration of polyamines (P. aeruginosa PAO1; 5 mM polyamine): 32 µg/mL; MICs to carbenicillin in the indicated concentration of polyamines (P. aeruginosa PAO1; 10 mM polyamine): 32 µg/mL; MICs to carbenicillin in the indicated concentration of polyamines (P. aeruginosa PAO1; 20 mM polyamine): 16 µg/mL
NC[C@H]1O[C@H](O[C@H]2[C@H](O)[C@@H](O[C@H]3O[C@H](CO)[C@@H](O)[C@H](N)[C@H]3O)[C@H](N)C[C@@H]2N)[C@H](O)[C@@H](O)[C@@H]1O [Kanamycin],–,–,> 16 µg/mL,>16 µg/mL,–,2 µg/mL,4 µg/mL,4 µg/mL,–
